Source: patent US6753182B1, “Cryopreservation of plant cells” (Phyton, Inc., priority 1995, dated 2004)
Read-outs that look alike come from different tables or passages of the source.

Columns and labels:
[1] = tested on: microtubles of mammalian cells; settings: cited from earlier work
[2] = tested on: refractory ovarian, breast and other cancers; settings: clinical trials; cited from earlier work
Taxus cells [3] = assay: Post-thaw viability of cryopreserved Taxus cells (FDA / trypan blue staining); settings: for Survival: 3% mannitol, vitrified 40/30 ethylene glycol/sorbitol, post-thaw
Description: Culturing cells at high density maximizes the productivity of the cell culture process. […] Cell viability was determined by staining with a 0.05% fluorescein diacetate (FDA) in acetone (J. M. Widholm, Stain Technol 47:189-94, 1972) followed by counting the number of green fluorescein cells upon excitation with blue light in a fluorescence microscope.
After 3 days of incubation in growth medium with mannitol, cells were cold acclimated at 4° C. for 3 hours. Acclimated cells were harvested and transferred to 4 ml cryovials containing a cold vitrifying solution of 40/30 wt % ethylene glycol/sorbitol in media. The vials were incubated at 4° C. for 3 minutes and frozen by immersion into liquid nitrogen. Vials were maintained in liquid nitrogen for at least 10 minutes before use in the thawing experiments.
Vials of frozen cells were removed from liquid nitrogen storage and agitated at 40° C. until the contents are liquefied (1-2 minutes). The liquefied cells were then washed 5 to 6 times with sterile media containing 1 M sorbitol, 3 times with media containing 0.5 M sorbitol media, 3 times with 0.1 M sorbitol media, and 3 times with sorbitol free media. Washing was performed by resuspension of cells in wash media, centrifugation at 50×g for 2 minutes and aspiration of wash media from the cell pellet. Cell viability was determined immediately after thawing.
Various osmotic agents in growth medium were evaluated to determine their effects on the survival of Taxus species cells precultured with the agents, after the preculture period and after thawing of the cryoprotected and frozen Taxus cell suspensions. Cells of three-day cell culture suspensions were precultured in growth medium containing various osmotic agents prior to cryoprotection. Cryoprotected cells were frozen and stored in liquid nitrogen for a minimum of one hour. Viability tests were performed at the end of the preculture period (control) and immediately after thawing of the cryoprotected and frozen cell.
Taxus cells were harvested from cell culture and the biomass resuspended in growth medium containing mannitol at a concentration of 3% for one day or three-days at room temperature. Loaded cells were incubated at 4° C. for 3 hours and transferred to 4 ml cryovials containing cold vitrifying solution comprising 40/30 weight percent ethylene glycol/sorbitol in culture medium. The vials were incubated at 4° C. for three minutes and frozen by liquid nitrogen immersion. Cells contained in the vials were maintained in liquid nitrogen for at least 10 minutes.
Cryopreserved cells were thawed and their viability was determined by FDA and tryptan blue staining procedures.
Cultured Tarus cells were harvested and resuspended in fresh growth medium containing 3% mannitol for 3 days. Cells were cold acclimated for 3 hours and transferred to cryovials containing vitrification solution. Cell suspensions were frozen by liquid nitrogen immersion. Liquid nitrogen frozen cells were thawed by agitating the cryovials in a 40° C. water bath for 1-2 minutes.

Taxus cells [4] = assay: Viability of Taxus cells at end of preculture period (before freezing); assay type: cell-based, Taxus species; settings: end of preculture period with the osmotic agent, not frozen
[5] = tested on: Taxus species cell line KS1A; assay: Post-thaw viability of cryopreserved Taxus cell line KS1A (FDA staining); assay type: cell-based
Description: (§1) Cells of Taxus suspension cultures (KS1A) were harvested and precultured with various osmotic agents in the medium. Osmotic agents tested include trehalose, proline, sorbitol (0.15 M-0.8 M), sucrose (2-20%) and mannitol (0.16 M). Viability was evaluated for each cell suspension at the end of the preculture period and immediately after thawing. Regrowth was evaluated after post-thaw osmotic adjustment. The vitrification solutions used were ethylene glycol/sorbitol/pectin and ethylene glycol/sorbitol at 40/30 weight percent in culture medium.
Six to seven day cell suspensions of Taxus species cell line KS1A were pretreated with 3% mannitol for three days at room temperature. Loaded cells were acclimated to the cold by incubating the flasks at 4° C. for 3 hours. Cold acclimated cells were transferred to 4 ml cryovials and cold vitrification solution was added to each and mixed. After vitrification at 4° C. for three minutes, cells were frozen liquid nitrogen immersion. Vials were maintained in liquid nitrogen for at least 10 minutes.
Cryopreserved cells were thawed by transferring vials from liquid nitrogen and agitated in a 40° C. water bath for 1-2 minutes. Post-thaw viability was determined by FDA staining assay.

[6] = tested on: Taxus suspension cultures (KS1A); assay: Viability of Taxus KS1A cells at end of preculture period; assay type: cell-based, Taxus species
Description: as §1

Taxus cells [7] = assay: Regrowth of Taxus cells after thawing and osmotic adjustment; assay type: cell-based, Taxus species; settings: after thawing
Taxus cells [8] = assay: as above; assay type: cell-based, Taxus species; settings: after thawing; remark: listed apart in the source
Description: Cell viability was determined immediately after thawing. The summary of multiple experiments is listed below.
Six to seven day old cell suspensions in growth medium were harvested and the cell biomass resuspended in fresh growth medium containing 0.06 M, 0.12 M, 0.15 M, 0.29 M and 0.58 M sucrose. Cells were cryopreserved, frozen, thawed and osmotically adjusted accordingly. Cell viability was determined immediately after thawing.

[9] = tested on: Taxus species cell line KS1A; assay: Cell viability and growth before and after cryopreservation, line KS1A; assay type: cell-based; settings: 3% mannitol 3 days, before freezing
Description: (§2) Six to seven day old cell suspensions of each cell line were harvested and the biomass resuspended in fresh growth medium containing 3% mannitol. Cells were incubated for 3 days at room temperature and thereafter the loaded cells suspensions were incubated at 4° C. for from 3 hours. Cold acclimated cells were transferred to 4 ml cryovials containing a cold vitrification solution of ethylene glycol/sorbitol 40/30 wt %. The vitrification solution and cells were gently mixed and the vials were incubated at […] for 3 minutes. Thereafter, the cell suspensions were frozen by liquid nitrogen immersion for at least 10 minutes.
(§3) After freezing, the cells were thawed by transferring the frozen vials from liquid nitrogen to a 40° C. water bath for 1-2 minutes. Post-thaw cell viability was determined by FDA staining assay. Cells were washed 5-6 times with cold sterile 1M sorbitol media and resuspended in fresh 1 M in medium.
(§4) The cell suspensions free from toxic cryoprotectants were then each separately filtered using a buchner funnel and Whatmann 541 filter paper under sterile conditions. For each cell suspension, the filter with cells was layered on semisolid growth medium containing 0.5M sorbitol and equilibrated for 30 minutes at room temperature. Paper containing cells was transferred to solid growth medium containing 0.1M sorbitol and incubated for 24 hours. […]

[10] = tested on: Taxus species cell line KEIR; assay: Cell viability and growth before and after cryopreservation, line KEIR; assay type: cell-based; settings: 3% mannitol 3 days, before freezing
Description: as §2, §3, §4

[11] = tested on: Taxus species cell line 647; assay: Cell viability and growth before and after cryopreservation, line 647; assay type: cell-based; settings: 3% mannitol 3 days, before freezing
Description: as §2, §3, §4

[12] = tested on: Taxus species cell line 1224; assay: Cell viability and growth before and after cryopreservation, line 1224; assay type: cell-based; settings: 3% mannitol 3 days, before freezing
Description: as §2, §3, §4

[13] = tested on: Taxus species cell line 12-6; assay: Cell viability and growth before and after cryopreservation, line 12-6; assay type: cell-based; settings: 3% mannitol 3 days, before freezing
Description: as §2, §3, §4

[14] = tested on: Taxus species cell line 12-14; assay: Cell viability and growth before and after cryopreservation, line 12-14; assay type: cell-based; settings: 3% mannitol 3 days, before freezing
Description: as §2, §3, §4

[15] = tested on: Taxus species cell line 1220; assay: Cell viability and growth before and after cryopreservation, line 1220; assay type: cell-based; settings: 3% mannitol 3 days, before freezing
Description: as §2, §3, §4

[16] = cryoprotectant in vitrification solution: DMSO 5%-30%, propylene glycol 15%, glycerol 20%-30%, PEG-8000 10%, ethylene glycol 20%-50%, 3% mannitol 3 days, after −196° C. storage
[17] = cryoprotectants ethylene glycol/sorbitol 40/30 weight percent, immediately after thawing, sorbitol 0.15 M-0.8 M, sucrose 2%-20%, mannitol 0.16 M
[18] = end of preculture with osmotic agent (sorbitol 0.15 M-0.8 M, sucrose 2%-20%, mannitol 0.16 M)

In the case of CC(=O)O[C@H]1C(=O)[C@@]2(C)[C@H]([C@H](OC(=O)c3ccccc3)[C@]3(O)C[C@H](OC(=O)[C@H](O)[C@@H](NC(=O)c4ccccc4)c4ccccc4)C(C)=C1C3(C)C)[C@]1(OC(C)=O)CO[C@@H]1C[C@@H]2O [taxol], the “inhibition of the polymerization of microtubles” value [1] is given as “effectively inhibits” and the clinical efficacy [2] is given as “extremely effective”.

With OCCO [Ethylene Glycol, ethylene glycol] the Viability (Taxus cells [3]; [16]) was 25%-80% and the Viability (Taxus cells [3]; cryoprotectant in vitrification solution: DMSO 5%-30%, propylene glycol 15%, glycerol 20%-30%, PEG-8000 10%, ethylene glycol 20%-50%, 3% mannitol 3 days, after −196° C. storage, listed as ethylene glycol) was “highest viability”.

For O=C(O)[C@@H]1CCCN1 [Proline, proline], the “Survival (Viability) Frozen” value (Taxus cells [3]; Taxus species) was less than 15%, the “Survival (Viability) Control” value (Taxus cells [4]) was less than 50% and the “Recovery Viability” value ([5]; Taxus species) was less than 15%. For the same compound, the Viability ([6]; Taxus species) was 50-95%.

With OC[C@@H](O)[C@@H](O)[C@H](O)[C@@H](O)CO [Sorbitol, sorbitol] the “Survival (Viability) Frozen” value (Taxus cells [3]; Taxus species) was 30-70%, the “Survival (Viability) Control” value (Taxus cells [4]) was 50-95% and the “Recovery Viability” value [5, 17] was 30-70%. For the same compound, the Viability [6, 18] was 50-95%, the Regrowth (Taxus cells [7]; 0.15 M sorbitol pretreatment) was “none” and the Regrowth (Taxus cells [7]; 0.22 M sorbitol pretreatment) was “vigorous”. For the same compound, the Regrowth (Taxus cells [7]; 0.33 M sorbitol pretreatment) was “vigorous”, the Regrowth (Taxus cells [7]; 0.44 M sorbitol pretreatment) was “vigorous” and the Regrowth (Taxus cells [7]; 0.80 M sorbitol pretreatment) was “slight”.

OCC(O)CO [Glycerol, glycerol] gave a Viability (Taxus cells [3]; [16]) of 0%.

For OC[C@H]1O[C@H](O[C@H]2O[C@H](CO)[C@@H](O)[C@H](O)[C@H]2O)[C@H](O)[C@@H](O)[C@@H]1O [Trehalose, trehalose], the “Survival (Viability) Frozen” value (Taxus cells [3]; Taxus species) was less than 15% and the “Survival (Viability) Control” value (Taxus cells [4]) was 50-95%.

Work on PEG-8000 yielded a Viability (Taxus cells [3]) of 0%.

CC(O)CO (centres unmarked) [Propylene Glycol, propylene glycol] gave a Viability (Taxus cells [3]; [16]) of 0%.

In the case of OC[C@H]1O[C@@](CO)(O[C@H]2O[C@H](CO)[C@@H](O)[C@H](O)[C@H]2O)[C@@H](O)[C@@H]1O [Sucrose, sucrose], the “Survival (Viability) Frozen” value (Taxus cells [3]; Taxus species) is reported as 20-50%, the Regrowth (Taxus cells [8]; 0.06 M sucrose pretreatment) is reported as “slight” and the Regrowth (Taxus cells [8]; 0.12 M sucrose pretreatment) is reported as “slight”. The Regrowth (Taxus cells [8]; 0.15 M sucrose pretreatment) was “slight”, the Regrowth (Taxus cells [8]; 0.29 M sucrose pretreatment) was “slight” and the Regrowth (Taxus cells [8]; 0.58 M sucrose pretreatment) was “slight”. The “Survival (Viability) Control” value (Taxus cells [4]) was 50-95%, the “Recovery Viability” value ([5]; Taxus species) was <10-40% and the Viability ([6]; Taxus species) was 50-95%.

In the case of OC[C@@H](O)[C@@H](O)[C@H](O)[C@H](O)CO [Mannitol, mannitol], the “Survival (Viability) Frozen” value (Taxus cells [3]) is reported as “highest percent viability”, the Survival (Taxus cells [3]; 1 day of preculture) is reported as 50% and the Survival (Taxus cells [3]; 3 days of preculture) is reported as 40-80%. For the same compound, the Survival (Taxus cells [3]; 3 days of preculture, listed as mannitol) was “significantly higher”, the “Survival (Viability) Frozen” value (Taxus cells [3]; Taxus species) was 40-80% and the Viability (Taxus cells [3]; Taxus species, 3 days, 0.16 M) was 60%. It also gave a Viability (Taxus cells [3]; Taxus species, 3 days, 0.22 M) of 30%, a Viability (Taxus cells [3]; Taxus species, 3 days, 0.33 M) of 30% and a Viability (Taxus cells [3]; Taxus species, 3 days, 0.44 M) of 20%. For the same compound, the “Survival (Viability) Control” value (Taxus cells [4]) was 50-95%, the “Recovery Viability” value [5, 17] was 40-80% and the “Recovery Viability” value ([5]; cryoprotectants ethylene glycol/sorbitol 40/30 weight percent, immediately after thawing, sorbitol 0.15 M-0.8 M, sucrose 2%-20%, mannitol 0.16 M, listed as mannitol) was “highest percent viability”. For the same compound, the Viability [6, 18] was 75-95%, the “Viability (preculture)” value [9] was “≧95%” and the “Viability (preculture)” value [10] was “≧95%”. For the same compound, the “Viability (preculture)” value [11] was “≧95%”, the “Viability (preculture)” value [12] was “≧95%” and the “Viability (preculture)” value [13] was “≧95%”. The “Viability (preculture)” value [14] was “≧95%”, the “Viability (preculture)” value [15] was “≧95%” and the Regrowth (Taxus cells [7]; 0.16 M mannitol preculture 3 days) was “vigorous”. For the same compound, the Regrowth (Taxus cells [7]; 0.22 M mannitol preculture 3 days) was “slight”, the Regrowth (Taxus cells [7]; 0.33 M mannitol preculture 3 days) was “slight” and the Regrowth (Taxus cells [7]; 0.44 M mannitol preculture 3 days) was “slight”.

With C[S+](C)[O-] [DMSO, dimethylsulfoxide] the Viability (Taxus cells [3]; [16]) was “≦15%”.
